Test results published in the NIST ThermoML archive (doi:10.1021/je8002699).
Values joined by “and” are separate entries in the source; they are usually repeats but may differ in a detail not shown here. Identical values can stand only once. Numbers after ± are expanded uncertainties.

Assays:
[1] = for mass density / viscosity / speed of sound: Liquid
[2] = refractive index (Na D-line) (dimensionless); details: 101.33 kPa, Liquid
[3] = xn = mol fraction of the nth substance listed; details: x2 = 0; for mass density / speed of sound / viscosity: 101 kPa, Liquid
[4] = refractive index (Na D-line) (dimensionless); xn = mol fraction of the nth substance listed; details: 101 kPa, Liquid, x2 = 0

Structure (SMILES) | surface tension liquid-gas ([1]; 303.15 K) [mN/m] | mass density ([1]; 303.15 K, 101 kPa) [kg/m3] | speed of sound ([1]; 303.15 K, 101 kPa) [m/s] | viscosity ([1]; 303.15 K, 101 kPa) [mPa·s] | surface tension liquid-gas ([1]; 313.15 K) [mN/m] | mass density ([1]; 313.15 K, 101 kPa) [kg/m3] | speed of sound ([1]; 313.15 K, 101 kPa) [m/s] | viscosity ([1]; 313.15 K, 101 kPa) [mPa·s] | surface tension liquid-gas ([1]; 323.15 K) | mass density ([1]; 323.15 K, 101 kPa) [kg/m3] | speed of sound ([1]; 323.15 K, 101 kPa) [m/s] | viscosity ([1]; 323.15 K, 101 kPa) [mPa·s] | refractive index ([2]; 303.15 K) | refractive index ([2]; 313.15 K) | refractive index ([2]; 323.15 K) | surface tension liquid-gas ([3]; 303.15 K) [mN/m] | mass density ([3]; 303.15 K) [kg/m3] | speed of sound ([3]; 303.15 K) [m/s] | viscosity ([3]; 303.15 K) [mPa·s] | surface tension liquid-gas ([3]; 313.15 K) [mN/m] | further results
CC(=O)CC(C)(C)O [4-hydroxy-4-methylpentan-2-one] | 29.44 ± 0.85 | 936 ± 7.8 | 1256 ± 6 | 2.89 ± 0.13 | 28.92 ± 0.84 | 912 ± 8.3 | 1183 ± 5 | 2.791 ± 0.13 | 28.12 ± 0.82 mN/m and 27.12 ± 0.8 mN/m | 901 ± 8.9 | 1121 ± 5 | 2.67 ± 0.12 | 1.4239 ± 0.005 | 1.4198 ± 0.005 | 1.4151 ± 0.005 | – | – | – | – | – | mass density ([1]; 293.15 K, 101 kPa): 938 ± 7 kg/m3; viscosity ([1]; 293.15 K, 101 kPa): 2.89 ± 0.13 mPa·s
O=[N+]([O-])c1ccccc1 [nitrobenzene] | 40.9 ± 1.1 | 1200 ± 10 | 1413 ± 6 | 1.617 ± 0.076 | 38.24 ± 1.1 | 1196 ± 11 | 1318 ± 6 | 1.465 ± 0.069 | 36.47 ± 1 mN/m | 1185 ± 12 | 1221 ± 5 | 1.343 ± 0.064 | 1.5504 ± 0.005 | 1.5476 ± 0.005 | 1.5435 ± 0.005 | – | – | – | – | – | –
CCc1ccccc1 [ethylbenzene] + CC(=O)CC(C)(C)O | – | – | – | – | – | – | – | – | – | – | – | – | – | – | – | 30.01 ± 0.86 | 867 ± 3.9 | 1335 ± 6 | 0.577 ± 0.047 | 29.04 ± 0.83 | mass density ([3]; 313.15 K): 842 ± 3.9 kg/m3; speed of sound ([3]; 313.15 K): 1289 ± 6 m/s; viscosity ([3]; 313.15 K): 0.5914 ± 0.048 mPa·s; surface tension liquid-gas ([3]; 323.15 K): 28.12 ± 0.81 mN/m; mass density ([3]; 323.15 K): 832.1 ± 4.1 kg/m3; speed of sound ([3]; 323.15 K): 1204 ± 5 m/s; viscosity ([3]; 323.15 K): 0.4841 ± 0.041 mPa·s; refractive index ([4]; 303.15 K): 1.4985 ± 0.0026; refractive index ([4]; 313.15 K): 1.4901 ± 0.0026; refractive index ([4]; 323.15 K): 1.4821 ± 0.0026
Cc1ccccc1 [toluene] | – | – | – | – | – | – | – | – | – | – | – | – | – | – | – | – | – | – | – | – | viscosity ([1]; 298.15 K, 101.33 kPa, Capillary tube (Ostwald / Ubbelohde) method): 0.555 ± 0.0042 mPa·s; mass density ([1]; 298.15 K, 101.33 kPa, Pycnometric method): 862.4 ± 1 kg/m3
O=[N+]([O-])c1ccccc1 [nitrobenzene] + CC(=O)CC(C)(C)O | – | – | – | – | – | – | – | – | – | – | – | – | – | – | – | 40.9 ± 1.1 | 1200 ± 10 | 1413 ± 6 | 1.617 ± 0.076 | 38.24 ± 1.1 | mass density ([3]; 313.15 K): 1196 ± 11 kg/m3; speed of sound ([3]; 313.15 K): 1318 ± 6 m/s; viscosity ([3]; 313.15 K): 1.465 ± 0.069 mPa·s; surface tension liquid-gas ([3]; 323.15 K): 36.47 ± 1 mN/m; mass density ([3]; 323.15 K): 1185 ± 12 kg/m3; speed of sound ([3]; 323.15 K): 1221 ± 5 m/s; viscosity ([3]; 323.15 K): 1.343 ± 0.064 mPa·s; refractive index ([4]; 303.15 K): 1.5504 ± 0.005; refractive index ([4]; 313.15 K): 1.5476 ± 0.005; refractive index ([4]; 323.15 K): 1.5435 ± 0.005
CCc1ccccc1 [ethylbenzene] | 30.01 ± 0.86 | 867 ± 3.9 | 1335 ± 6 | 0.577 ± 0.047 | 29.04 ± 0.83 | 842 ± 3.9 | 1289 ± 6 | 0.5914 ± 0.048 | 28.12 ± 0.81 mN/m | 832.1 ± 4.1 | 1204 ± 5 | 0.4841 ± 0.041 | 1.4985 ± 0.0026 | 1.4901 ± 0.0026 | 1.4821 ± 0.0026 | – | – | – | – | – | –
